Results from ChEMBL document CHEMBL1201862, “PubChem BioAssay data set” (2004).
Activity calls are given as the source filed them.

Tests used:
[1] = molecular target: 1-phosphatidylinositol 4,5-bisphosphate phosphodiesterase beta-3 (Homo sapiens, UniProt Q01970); experiment: Fluorescence-based biochemical high throughput dose response assay to identify inhibitors of phospholipase C isozymes (PLC-B3).
[2] = molecular target: 1-phosphatidylinositol 4,5-bisphosphate phosphodiesterase gamma-1 (Homo sapiens, UniProt P19174); experiment: Counterscreen for inhibitors of phospholipase C isozymes (PLC-B3): Fluorescence-based biochemical high throughput dose response assay to identify inhibitors of phospholipase C isozymes (PLC-gamma1).
cells = conditions: HEK293
[3] = Counterscreen for inhibitors of Trypanosoma brucei methionyl tRNA synthetase (MetRS): Luminescence-based cell-based high throughput dose response assay to identify compounds that are cytotoxic to Jurkat human T lymphocyte cells.; type: functional
[4] = Late stage counterscreen for inhibitors of Trypanosoma brucei methionyl tRNA synthetase (MetRS): Luminescence-based cell-based high throughput dose response assay to identify compounds that are cytotoxic to Jurkat human T lymphocyte cells.; type: functional
[5] = molecular target: T1, Methionyl-tRNA synthetase, putative (Trypanosoma brucei brucei, UniProt Q38C91); type: functional, Trypanosoma brucei brucei strain 927/4 GUTat10.1
T1 sequence (Q38C91 whole entry): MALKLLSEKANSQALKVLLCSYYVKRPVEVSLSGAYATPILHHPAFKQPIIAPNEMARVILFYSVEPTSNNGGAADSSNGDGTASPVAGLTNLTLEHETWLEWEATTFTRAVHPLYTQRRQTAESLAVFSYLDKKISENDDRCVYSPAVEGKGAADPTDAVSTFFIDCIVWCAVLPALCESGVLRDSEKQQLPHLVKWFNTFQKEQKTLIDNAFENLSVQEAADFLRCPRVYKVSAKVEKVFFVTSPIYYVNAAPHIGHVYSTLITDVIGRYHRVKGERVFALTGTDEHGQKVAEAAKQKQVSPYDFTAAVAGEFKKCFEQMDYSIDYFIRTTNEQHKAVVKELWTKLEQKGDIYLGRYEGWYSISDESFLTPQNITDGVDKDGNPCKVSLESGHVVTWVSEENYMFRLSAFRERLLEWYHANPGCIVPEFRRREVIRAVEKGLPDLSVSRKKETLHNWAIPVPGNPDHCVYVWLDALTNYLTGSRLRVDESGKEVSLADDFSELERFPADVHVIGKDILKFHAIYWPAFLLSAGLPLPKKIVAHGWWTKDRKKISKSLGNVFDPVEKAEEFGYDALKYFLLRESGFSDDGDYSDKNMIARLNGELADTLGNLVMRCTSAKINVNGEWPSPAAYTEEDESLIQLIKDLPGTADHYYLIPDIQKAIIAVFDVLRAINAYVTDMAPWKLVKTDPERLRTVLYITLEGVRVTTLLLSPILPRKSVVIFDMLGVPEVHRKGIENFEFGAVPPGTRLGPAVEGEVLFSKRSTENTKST

[6] = molecular target: T1, Methionyl-tRNA synthetase, putative; type: functional, Trypanosoma brucei brucei strain 927/4 GUTat10.1; remark: listed apart in the source
[7] = test system: Streptococcus sp. 'group A'; experiment: growth inhibition of control SK(-) GAS strain, dose response, counter-screen for streptokinase expression inhibitor project, luminescence, kanamycin, BacTiterGlo, confirmation (AID 1900); type: functional, organism-based
Streptococcus = experiment: Group A Streptococcus viability loss, dose response, counter-screen for streptokinase expression inhibitor project, luminescence, BacTiterGlo (AID 1915); type: functional, organism-based;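 also: potency for reduction of bacterial viability or growth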
[8] = human group III sPLA2 inhibitors, dose response, biochemical, QFRET, IC50 (AID 743457);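 also: green fluorescence rise as the enzyme cleaves BODIPY PC-A2 in liposomes; potency for inhibition of the enzyme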
Beta-galactosidase = Beta-galactosidase (Escherichia coli, UniProt Q8VNN2); experiment: Dose response counterscreen for EBI2 assay utilizing the enzyme, b-galactosidase.; type: functional
Beta-galactosidase, sequence (Q8VNN2 whole entry): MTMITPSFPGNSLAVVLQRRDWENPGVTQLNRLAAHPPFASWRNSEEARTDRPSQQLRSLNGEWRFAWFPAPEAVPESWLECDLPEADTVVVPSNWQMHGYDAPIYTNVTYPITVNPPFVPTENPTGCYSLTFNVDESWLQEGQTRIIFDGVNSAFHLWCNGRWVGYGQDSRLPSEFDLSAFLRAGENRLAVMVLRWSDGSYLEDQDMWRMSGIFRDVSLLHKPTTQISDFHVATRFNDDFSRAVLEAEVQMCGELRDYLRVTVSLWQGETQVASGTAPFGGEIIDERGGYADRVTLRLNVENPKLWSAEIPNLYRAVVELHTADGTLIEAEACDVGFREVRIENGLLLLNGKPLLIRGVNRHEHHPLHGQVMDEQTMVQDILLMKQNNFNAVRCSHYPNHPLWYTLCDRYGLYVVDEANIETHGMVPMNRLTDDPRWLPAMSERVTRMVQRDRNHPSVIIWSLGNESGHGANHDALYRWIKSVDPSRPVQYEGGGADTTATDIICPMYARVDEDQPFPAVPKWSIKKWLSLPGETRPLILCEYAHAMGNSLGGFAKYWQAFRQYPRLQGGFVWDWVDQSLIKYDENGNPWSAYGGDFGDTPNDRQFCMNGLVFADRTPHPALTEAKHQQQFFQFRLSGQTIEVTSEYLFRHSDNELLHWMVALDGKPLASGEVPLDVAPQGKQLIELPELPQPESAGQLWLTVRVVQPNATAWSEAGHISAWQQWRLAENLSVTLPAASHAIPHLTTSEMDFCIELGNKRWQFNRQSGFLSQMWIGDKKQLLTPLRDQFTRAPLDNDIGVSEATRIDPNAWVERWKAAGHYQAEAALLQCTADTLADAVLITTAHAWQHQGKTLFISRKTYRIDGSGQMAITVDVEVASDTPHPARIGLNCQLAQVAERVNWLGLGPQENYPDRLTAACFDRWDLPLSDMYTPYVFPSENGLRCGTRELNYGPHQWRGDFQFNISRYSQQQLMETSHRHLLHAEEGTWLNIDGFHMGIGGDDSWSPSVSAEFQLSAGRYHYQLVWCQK

Estrogen receptor beta [9] = molecular target: T2, Estrogen receptor beta (Homo sapiens, UniProt Q92731);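 also: recombinant ER-beta bound to coactivator SRC1 peptide in presence of estradiol agonist; inhibitors block coactivator peptide binding and lower the FRET signal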
T2 sequence (Q92731 whole entry): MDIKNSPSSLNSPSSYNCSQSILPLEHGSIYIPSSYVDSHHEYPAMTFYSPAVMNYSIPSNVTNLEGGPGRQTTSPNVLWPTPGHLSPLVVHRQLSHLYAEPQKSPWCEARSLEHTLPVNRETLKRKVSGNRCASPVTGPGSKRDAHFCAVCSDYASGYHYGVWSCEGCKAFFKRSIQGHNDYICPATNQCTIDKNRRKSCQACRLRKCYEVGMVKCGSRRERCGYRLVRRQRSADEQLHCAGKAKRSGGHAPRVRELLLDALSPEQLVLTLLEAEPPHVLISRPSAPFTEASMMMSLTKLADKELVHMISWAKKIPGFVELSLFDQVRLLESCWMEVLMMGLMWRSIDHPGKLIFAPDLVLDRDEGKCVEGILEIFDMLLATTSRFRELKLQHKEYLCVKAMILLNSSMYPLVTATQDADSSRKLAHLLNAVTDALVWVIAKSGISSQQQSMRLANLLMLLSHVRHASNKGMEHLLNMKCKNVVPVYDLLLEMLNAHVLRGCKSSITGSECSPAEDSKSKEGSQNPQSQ

Estrogen receptor beta [10] = molecular target: T2, Estrogen receptor beta; experiment: ERβ–SRC-3 coactivator interaction inhibitors, confirmation, orthogonal assay, biochemical, ELISA, streptavidin-HRP readout (AID 1060)
[11] = HEK293T cell cytotoxicity, dose response, cytotoxicity control for HIV Vif inhibitor project, cherry-picks (AID 652208); type: functional, cell-based
[12] = LGR2 antagonists, dose response, cell-based, HEK293, CRE-luciferase reporter, cherry pick, set 2 (AID 743343); type: functional;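 also: transfected cells were stimulated with diluted bursicon conditioned medium after compound addition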
[13] = HEK293 cell cytotoxicity, dose response, cytotoxicity control, plate reader, cherry-picked samples (AID 743446); type: functional, cell-based
[14] = HepG2 cell cytotoxicity, dose response, cytotoxicity control, plate reader, cherry-pick, antagonist series (AID 743416); type: functional, cell-based
[15] = MC4R antagonists, dose response, counter-screen for LGR2 antagonist project, cell-based, plate reader, cherry pick (AID 743444); type: functional;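 also: transfected HEK 293 cells stimulated with alpha-MSH peptide; potency of inhibitors of the alpha-MSH evoked signal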
Caspase-3 = molecular target: T3, Caspase-3 (Homo sapiens, UniProt P42574); experiment: caspase-3 enzyme inhibitors, selectivity check, dose response, selectivity assay for caspase-6 allosteric inhibitor project, biochemical, fluorescence, cherry-picked samples (AID 743291)
T3 sequence (P42574 whole entry): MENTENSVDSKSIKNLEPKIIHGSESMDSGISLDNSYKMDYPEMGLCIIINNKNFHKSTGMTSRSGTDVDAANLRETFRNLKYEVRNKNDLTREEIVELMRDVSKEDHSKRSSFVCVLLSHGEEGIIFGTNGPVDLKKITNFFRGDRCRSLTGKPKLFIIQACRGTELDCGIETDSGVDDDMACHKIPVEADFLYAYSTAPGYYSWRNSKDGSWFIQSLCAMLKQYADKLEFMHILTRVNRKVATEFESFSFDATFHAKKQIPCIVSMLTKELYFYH

Genome polyprotein = Genome polyprotein (dengue virus type 2, UniProt P29990); experiment: Dengue-2 NS5 methyltransferase inhibitors, primary screen, biochemical, confirmation dose response (AID 588689); type: functional
Genome polyprotein, sequence (P29990 2492-3391 limits assumed): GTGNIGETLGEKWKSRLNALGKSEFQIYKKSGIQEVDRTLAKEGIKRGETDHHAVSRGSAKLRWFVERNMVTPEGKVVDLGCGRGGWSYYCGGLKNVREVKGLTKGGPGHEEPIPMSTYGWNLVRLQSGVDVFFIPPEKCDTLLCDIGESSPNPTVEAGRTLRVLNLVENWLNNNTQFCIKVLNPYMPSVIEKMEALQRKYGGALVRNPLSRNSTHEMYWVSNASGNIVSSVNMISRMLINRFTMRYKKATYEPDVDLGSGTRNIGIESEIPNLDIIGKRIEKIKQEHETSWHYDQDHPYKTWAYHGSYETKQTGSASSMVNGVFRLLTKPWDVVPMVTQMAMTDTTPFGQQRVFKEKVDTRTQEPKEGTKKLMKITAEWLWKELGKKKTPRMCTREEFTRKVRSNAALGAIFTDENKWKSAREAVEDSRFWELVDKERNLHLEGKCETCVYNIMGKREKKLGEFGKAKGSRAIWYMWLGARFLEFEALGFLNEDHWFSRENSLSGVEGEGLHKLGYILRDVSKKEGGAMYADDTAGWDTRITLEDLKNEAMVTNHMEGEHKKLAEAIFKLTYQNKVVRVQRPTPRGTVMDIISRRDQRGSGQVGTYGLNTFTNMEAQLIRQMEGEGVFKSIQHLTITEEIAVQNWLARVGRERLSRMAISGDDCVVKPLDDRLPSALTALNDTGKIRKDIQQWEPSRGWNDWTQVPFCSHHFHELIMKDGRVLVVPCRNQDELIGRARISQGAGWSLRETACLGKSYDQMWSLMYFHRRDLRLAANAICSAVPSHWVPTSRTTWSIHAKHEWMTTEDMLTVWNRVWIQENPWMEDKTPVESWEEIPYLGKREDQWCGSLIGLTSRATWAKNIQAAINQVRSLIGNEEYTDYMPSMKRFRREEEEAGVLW

Caspase-6 = molecular target: T4, Caspase-6 (Homo sapiens, UniProt P55212); experiment: human caspase-6 inhibitors, dose response, biochemical, VEID-R110 fluorescence, cherry-pick (AID 720632)
T4 sequence (P55212 whole entry): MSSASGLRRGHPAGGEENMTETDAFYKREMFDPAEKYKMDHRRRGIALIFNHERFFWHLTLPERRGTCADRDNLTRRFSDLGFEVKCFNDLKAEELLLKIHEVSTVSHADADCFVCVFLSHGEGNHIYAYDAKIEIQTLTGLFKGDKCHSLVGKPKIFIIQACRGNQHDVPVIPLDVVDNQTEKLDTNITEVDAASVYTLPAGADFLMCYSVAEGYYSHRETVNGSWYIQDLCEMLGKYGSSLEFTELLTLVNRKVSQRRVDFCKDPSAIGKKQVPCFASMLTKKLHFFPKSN

Caspase-7 = Caspase-7 (Homo sapiens, UniProt P55210); experiment: human caspase-7 inhibitors, dose response, selectivity assay for caspase-6 inhibitor project, biochemical, DEVD-R110 fluorescence, cherry-pick (AID 743295)
Caspase-7, sequence (P55210 24-198 limits assumed): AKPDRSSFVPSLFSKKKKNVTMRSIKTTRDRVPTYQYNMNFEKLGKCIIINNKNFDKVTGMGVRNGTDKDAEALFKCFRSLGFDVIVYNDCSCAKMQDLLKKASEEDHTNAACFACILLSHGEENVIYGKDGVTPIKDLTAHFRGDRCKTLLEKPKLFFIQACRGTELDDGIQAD
Caspase-7, sequence (P55210 207-303 limits assumed): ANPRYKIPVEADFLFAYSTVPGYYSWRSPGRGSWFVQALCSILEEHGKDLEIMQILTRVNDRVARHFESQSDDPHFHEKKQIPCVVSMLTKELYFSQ

[16] = molecular target: Beta-2 adrenergic receptor (Homo sapiens, UniProt P07550); experiment: beta2AR agonists driving receptor internalization, dose response, cell-based, FAP fluorogen, flow cytometry, cherry pick 1 (AID 588763); type: functional
Beta-2 adrenergic receptor, sequence (P07550 whole entry): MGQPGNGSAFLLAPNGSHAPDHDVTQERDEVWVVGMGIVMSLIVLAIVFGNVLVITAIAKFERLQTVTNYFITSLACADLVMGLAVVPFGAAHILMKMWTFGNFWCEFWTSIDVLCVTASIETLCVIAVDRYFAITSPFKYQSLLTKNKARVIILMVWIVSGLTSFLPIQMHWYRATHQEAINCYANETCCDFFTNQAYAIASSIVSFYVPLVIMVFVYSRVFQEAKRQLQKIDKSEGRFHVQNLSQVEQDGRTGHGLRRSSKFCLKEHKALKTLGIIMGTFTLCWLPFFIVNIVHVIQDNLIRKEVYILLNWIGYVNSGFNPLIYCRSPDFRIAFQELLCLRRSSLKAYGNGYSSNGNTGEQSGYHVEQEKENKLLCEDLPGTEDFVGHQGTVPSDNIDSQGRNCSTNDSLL

[17] = reduction of Shn3 3'UTR firefly luciferase signal, dose response, Schnurri-3 inhibitor project, cell-based, Clone20 osteoblasts, cherry-pick, set 2 (AID 720490); type: functional;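 also: actives lower the luminescence signal as inhibitors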
[18] = control 3'UTR Renilla luciferase suppression, dose response, counter-screen for Shn3 inhibitor project, cell-based, Clone20-Shn3RL, cherry-picked (AID 624133); type: functional
[19] = cytotoxicity dependent on PAX8, dose response, cell-based, plate reader, dry powder (AID 743049); type: functional
[20] = cytotoxicity in OV-90 ovarian cancer cells, dose response, PAX8 inhibitor project, cell-based, plate reader, dry powder, SA8 (AID 743149); type: functional
[21] = Shn3 3'UTR reporter inhibitors, dose response, cell-based, Clone20 osteoblasts, firefly luciferase, cherry-picked (AID 624132); type: functional;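 also: firefly luciferase luminescence from reporter carrying the Shn3 3'UTR in osteoblasts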
HEK293 = experiment: inhibitors of LMP1-driven NF-kB reporter, dose response, cell-based, HEK293, luciferase, cherry-pick (AID 588343); type: functional; conditions: Homo sapiens
[22] = cytotoxicity in COV362 ovarian cancer cells, dose response, cytotoxicity control for PAX8 inhibitor project, cell-based, plate reader, dry powder, SA12 (AID 743144); type: functional
[23] = PAX5 activity inhibitors, dose response, selectivity assay for PAX8 inhibitor project, cell-based, plate reader, dry powder samples (AID 743047); type: functional;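 also: HEK293 cells carrying a Pax5 driven CD19 promoter luciferase reporter; potency of inhibitors that lower reporter luminescence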
[24] = A549 cell cytotoxicity, dose response, cytotoxicity control, plate reader, cherry-pick, antagonist series (AID 743412); type: functional, cell-based
[25] = IOSE-T80 ovarian epithelial cell cytotoxicity, dose response, cytotoxicity control for PAX8 inhibitor project, plate reader, dry powder samples (AID 743045); type: functional, cell-based
Paired box protein Pax-8 = Paired box protein Pax-8 (Homo sapiens, UniProt Q06710); experiment: inhibitors of PAX8-driven TPO luciferase reporter, dose response, RMG-I cells, cherry-pick (AID 687027); type: functional, cell-based;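 also: luciferase reporter driven by Pax8 target thyroperoxidase promoter measured by SteadyGlo luminescence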
Paired box protein Pax-8, sequence (Q06710 whole entry): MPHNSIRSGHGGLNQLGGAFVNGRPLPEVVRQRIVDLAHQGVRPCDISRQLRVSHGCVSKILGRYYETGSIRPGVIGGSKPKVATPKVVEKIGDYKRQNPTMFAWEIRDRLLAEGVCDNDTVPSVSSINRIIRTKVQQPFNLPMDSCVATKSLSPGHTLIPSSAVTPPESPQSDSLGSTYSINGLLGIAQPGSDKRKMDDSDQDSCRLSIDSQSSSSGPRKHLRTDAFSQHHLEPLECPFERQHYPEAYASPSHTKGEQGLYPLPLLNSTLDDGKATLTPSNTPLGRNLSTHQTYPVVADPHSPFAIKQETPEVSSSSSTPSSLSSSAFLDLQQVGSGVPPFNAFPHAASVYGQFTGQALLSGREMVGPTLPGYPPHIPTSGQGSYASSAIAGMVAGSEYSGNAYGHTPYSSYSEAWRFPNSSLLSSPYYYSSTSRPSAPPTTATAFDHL

[26] = cytotoxicity in COV434 cells, dose response, cytotoxicity control for PAX8 inhibitor project, cell-based, plate reader, dry powder, SA7 (AID 743145); type: functional
[27] = PAX2 cell-based inhibition, dose response, selectivity assay for PAX8 inhibitor project, plate reader, dry powder samples (AID 743048); type: functional;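 also: HEK293 cells carrying a WT1 promoter luciferase reporter driven by expressed Pax2; potency is for inhibition of Pax2 driven reporter signal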

1-phosphatidylinositol 4,5-bisphosphate phosphodiesterase beta-3, sequence (Q01970 whole entry): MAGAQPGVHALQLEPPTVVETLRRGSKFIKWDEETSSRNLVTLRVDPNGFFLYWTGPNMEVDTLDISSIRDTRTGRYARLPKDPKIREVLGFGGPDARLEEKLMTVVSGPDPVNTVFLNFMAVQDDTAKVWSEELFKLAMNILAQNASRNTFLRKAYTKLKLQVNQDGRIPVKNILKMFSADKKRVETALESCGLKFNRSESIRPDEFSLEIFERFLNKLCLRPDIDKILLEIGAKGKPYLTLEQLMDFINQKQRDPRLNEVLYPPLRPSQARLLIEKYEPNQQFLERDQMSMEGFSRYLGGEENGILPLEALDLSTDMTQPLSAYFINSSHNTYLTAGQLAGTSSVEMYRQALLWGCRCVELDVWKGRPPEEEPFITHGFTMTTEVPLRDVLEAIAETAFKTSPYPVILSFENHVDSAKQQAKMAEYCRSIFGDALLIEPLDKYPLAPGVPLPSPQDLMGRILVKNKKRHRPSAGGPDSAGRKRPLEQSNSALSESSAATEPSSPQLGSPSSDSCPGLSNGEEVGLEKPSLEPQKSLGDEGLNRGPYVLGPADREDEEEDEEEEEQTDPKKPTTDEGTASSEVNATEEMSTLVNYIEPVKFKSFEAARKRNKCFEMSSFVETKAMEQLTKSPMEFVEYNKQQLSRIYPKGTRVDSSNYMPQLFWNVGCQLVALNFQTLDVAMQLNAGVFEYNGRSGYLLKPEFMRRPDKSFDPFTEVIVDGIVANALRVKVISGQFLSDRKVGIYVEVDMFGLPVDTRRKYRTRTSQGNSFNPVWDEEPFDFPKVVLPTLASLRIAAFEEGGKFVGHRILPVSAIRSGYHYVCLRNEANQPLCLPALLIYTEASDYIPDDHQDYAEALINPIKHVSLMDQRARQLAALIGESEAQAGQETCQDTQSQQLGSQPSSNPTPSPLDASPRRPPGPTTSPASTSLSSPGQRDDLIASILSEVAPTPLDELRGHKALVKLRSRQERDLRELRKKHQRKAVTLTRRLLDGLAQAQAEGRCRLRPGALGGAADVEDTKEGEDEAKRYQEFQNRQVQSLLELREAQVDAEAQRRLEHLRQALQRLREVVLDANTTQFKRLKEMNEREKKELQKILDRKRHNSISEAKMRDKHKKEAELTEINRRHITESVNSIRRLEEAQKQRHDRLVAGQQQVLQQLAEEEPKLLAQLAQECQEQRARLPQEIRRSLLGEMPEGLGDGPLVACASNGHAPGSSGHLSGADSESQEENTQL

Compound: O=C1C[S+]([O-])CN1c1ccc(Oc2ccccc2)cc1 (stereo not drawn)
- IC50 [1]: > 122 µM (inactive)
- IC50 [2]: 12.5 µM (inactive)

Compound: CCOCCCN=C(S)N1CCCN(c2nc3cc(C)c(C)cc3cc2C#N)CC1
- AC50 (cells): > 52 µM (inactive)

Compound: O=C1[C@@H]2Cc3c([nH]c4ccccc34)C(c3cccc([N+](=O)[O-])c3)N2C(=O)CN1CCCO (stereo partly drawn)
- IC50 [3]: 83.3 µM (inactive)
- IC50 [4]: > 83.3 µM (inactive)
- IC50 [5]: 0.911 µM (active)
- IC50 [6]: 0.528 µM (active)

Compound: Cc1ccc(C(=O)NC(=S)NNC(=O)c2ccccc2O)cc1
- EC50 [7]: 1.29 µM (active)
- EC50 (Streptococcus): 5.63 µM (active)
- IC50 [8]: > 122 µM (inactive)

Compound: O=C(/C=C/c1ccc([N+](=O)[O-])cc1)N1CCN(S(=O)(=O)c2cccs2)CC1
- IC50 (Beta-galactosidase): > 80 µM (inactive)

Compound: CCOc1c(C(N)=O)c(-c2ccccc2)c2c(O)nc3ccccc3n12
- IC50 (Estrogen receptor beta [9]): 33.6 µM (not active)
- IC50 (Estrogen receptor beta [10]): > 50 µM (not active)
- AC50 [11]: 49.9 µM (active)

Compound: COc1ccc(NC(=O)Nc2cccc([N+](=O)[O-])c2)cc1Cl
- AC50 [12]: 33.1 µM (active)
- AC50 [13]: > 52 µM (inactive)
- AC50 [14]: 26.8 µM (active)
- AC50 [15]: 34.3 µM (active)

Compound: CC(Cc1ccc(O)cc1)NCC(O)c1ccc(O)c(O)c1 (stereo not drawn)
- AC50 (Caspase-3): 24.5 µM (active)
- IC50 (Genome polyprotein): > 100 µM (active)
- AC50 (Caspase-6): 3.68 µM (active)
- AC50 (Caspase-7): > 70 µM (inactive)
- EC50 [16]: 0.553 µM (active)

Compound: CCCn1c(C)cc(C(=O)CN2C(=O)c3ccccc3S2(=O)=O)c1C
- AC50 [17]: 9.79 µM (active)
- AC50 [18]: 26.8 µM (active)
- AC50 [19]: 55.7 µM (active)
- AC50 [20]: 82.5 µM (active)
- AC50 [21]: 2.98 µM (active)
- AC50 (HEK293): 0.211 µM (active)
- AC50 [22]: 77.7 µM (active)
- AC50 [23]: 3.24 µM (active)
- AC50 [12]: 0.69 µM (active)
- AC50 [24]: > 52 µM (inactive)
- AC50 [25]: 81.2 µM (active)
- AC50 (Paired box protein Pax-8): 3.55 µM (active)
- AC50 [15]: 0.798 µM (active)
- AC50 [26]: > 100 µM (inactive)
- AC50 [27]: 4.42 µM (active)
